{"source": "patent US9655877B2", "about": "“Therapeutic methods for treating inflammation and immune system disorders” (priority 2009, dated 2017)", "system": "TNF-α mRNA and iNOS expression in BV-2 cells", "experiment": "TNF-α mRNA and iNOS expression in LPS-treated BV-2 cells, RT-PCR", "assay_type": "cell-based, murine", "settings": "compound 1 hour before LPS for 6 hours", "experimental": "Semi-quantitative PCR assays of targeted genes were performed in a 25 μl reaction mixture containing 1.5 mM MgCl2, 0.2 mM of each deoxynucleoside triphosphate, 0.25 μM of each primer, 2 units of Taq polymerase (GE Healthcare), and 1 μl of cDNA. PCR primer sets for TNF-α and glyceraldehyde-3-phosphate dehydrogenase (GAPDH) were as follows. TNF-α (upstream: 5′-GGCTCCAGGCGGTGCT TGTCC-3′ (SEQ ID NO:1); downstream: 5′-[…]-3′ (SEQ ID NO:2)), and GAPDH (upstream: 5′-[…]-3′ (SEQ ID NO:3); downstream: 5′-[…]-3′ (SEQ ID NO:4). The thermal cycling condition for PCR was 94° C. for 30 s, 60° C. for 30 s, and 72° C. for 1 min. The cycling reactions were repeated for 24 more cycles.\nThe levels of TNF-α mRNA and iNOS mRNA were determined by real-time RT-PCR (Roche 480II). 18S ribosomal RNA (18S) was used as an internal control. All of the real-time RT-PCR probes were obtained from the Universal Probe Library (Roche). All of the samples were performed in duplicate. […] The relative mRNA expression of the targeted genes was calculated by 2^−ΔΔCT and expressed as fold induction.\nTo study the role of senkyunolide A in suppressing TNF-α production, 10^5 cells/ml BV-2 cells are seeded in 24-well plates (0.5 ml in each well). […] Total RNA of the treated samples is isolated and subjected to semi-quantitative RT-PCR assays (FIG. 9A) and quantitative RT-PCR assays (FIGS. 9B and C) using specific […] TNF-α primers.", "data": [{"compound": "CCCC[C@H]1OC(=O)C2=C1CCC=C2", "note": "[senkyunolide A]", "values": [{"measurement": "effect on TNF-α mRNA expression", "result": "inhibits TNF-α mRNA"}, {"measurement": "effect on iNOS expression", "result": "inhibits TNF-α mRNA and iNOS expression"}]}]}
